Data published in PubChem BioAssay (NCI).
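96-well plates; 48 h exposure; 5 concentrations. Endpoints by linear interpolation between flanking doses. Not reached: highest tested concentration assigned. GI50: concentration for 50% inhibition of growth. At the TGI there is no net growth.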

Columns and labels:
Test in all cases: DTP human tumour cell line panel, 48 h
SF-295 CNS = test system: SF-295 CNS
786-0 renal = test system: 786-0 renal
T-47D breast = test system: T-47D breast
NCI-H23 lung = test system: NCI-H23 lung
MOLT-4 leukemia = test system: MOLT-4 leukemia
SF-268 CNS = test system: SF-268 CNS
COLO 205 colon = test system: COLO 205 colon
HT29 colon = test system: HT29 colon
ACHN renal = test system: ACHN renal
HOP-92 NSCLC = test system: HOP-92 NSCLC
OVCAR-3 ovarian = test system: OVCAR-3 ovarian
UACC-62 melanoma = test system: UACC-62 melanoma
NCI-H460 lung = test system: NCI-H460 lung
CAKI-1 renal = test system: CAKI-1 renal
SK-MEL-5 melanoma = test system: SK-MEL-5 melanoma
TK-10 renal = test system: TK-10 renal

Structure (SMILES)	TGI (SF-295 CNS)	TGI (786-0 renal)	TGI (T-47D breast)	TGI (NCI-H23 lung)	TGI (MOLT-4 leukemia)	TGI (SF-268 CNS)	TGI (COLO 205 colon)	TGI (HT29 colon)	TGI (ACHN renal)	TGI (HOP-92 NSCLC)	TGI (OVCAR-3 ovarian)	TGI (UACC-62 melanoma)	TGI (NCI-H460 lung)	TGI (CAKI-1 renal)	TGI (SK-MEL-5 melanoma)	TGI (TK-10 renal)	GI50 (NCI-H460 lung)
COC(=N)C12C(N)=NC(OC)(OC)C1(C#N)C21C(=O)N(c2ccccc2)N=C1C (stereo not given)	> 100 µM	> 100 µM	> 100 µM	> 100 µM	> 100 µM	> 100 µM	> 100 µM	> 100 µM	> 100 µM	> 100 µM	> 100 µM	> 100 µM	> 100 µM	> 100 µM			
Cc1sc2nc3n(c(=O)c2c1C)N=C(c1ccc(Cl)cc1)CS3	> 100 µM	> 100 µM	> 100 µM	> 100 µM	> 100 µM	> 100 µM	> 100 µM	> 100 µM	> 100 µM	> 100 µM	> 100 µM	> 100 µM	> 100 µM	> 100 µM	> 100 µM		
CC(C)/C=N\n1c(N)c(C#N)c(C#N)c1C(C)C	73.7 µM	> 100 µM	66.3 µM	75.4 µM	63.4 µM	> 100 µM	45.7 µM	> 100 µM	91.1 µM	38.3 µM	62.1 µM	34.7 µM		> 100 µM	34.1 µM	> 100 µM	
CC1(C)OCC(C2OC(N3O[C@H](CI)C[C@@H]3c3ccccc3)C3OC(C)(C)OC23)O1 (stereo not given in full)	> 100 µM	> 100 µM	> 100 µM	> 100 µM		> 100 µM	> 100 µM	> 100 µM	> 100 µM	> 100 µM	> 100 µM	> 100 µM	> 100 µM	> 100 µM	> 100 µM	> 100 µM	
Cc1ccc(S(=O)(=O)NNC(=S)Nc2cccc3ccccc23)cc1	> 100 µM	> 100 µM	> 100 µM	> 100 µM	> 100 µM	> 100 µM	> 100 µM	> 100 µM	79.9 µM	86 µM		> 100 µM	> 100 µM	> 100 µM	33.1 µM	> 100 µM	
CC1(O)/C(=N/O)CC2CC1C2(C)C (stereo not given)	> 100 µM	> 100 µM	> 100 µM	> 100 µM	> 100 µM	> 100 µM	> 100 µM	> 100 µM	> 100 µM	> 100 µM	> 100 µM	> 100 µM	> 100 µM		> 100 µM	> 100 µM	
CN(C)CCO/N=C1/C=C2CC[C@H]3[C@@H]4CC[C@H](O)[C@@]4(C)CC[C@@H]3[C@@]2(C)CC1	32.4 µM	27.9 µM	97.9 µM	33.6 µM	> 36.3 µM	31.6 µM	34.9 µM	5.53 µM	40.9 µM	23 µM	61 µM	26 µM	21.9 µM	> 66.8 µM	34.3 µM	28.6 µM	
CN(C)CCNc1ccc2c(=O)n(CCN(C)C)c(=O)n3c4ccc(N)cc4c(=O)c1c23	1.07 µM	1.18 µM	4.64 µM	0.215 µM	0.161 µM	1.25 µM	1.26 µM	0.46 µM	0.734 µM	0.87 µM	1.22 µM	1.21 µM	0.56 µM	4.76 µM	1.37 µM	6.13 µM	
CC1NC(/C(=C/c2ccccc2O)NC(=O)c2ccccc2)OC1=O (stereo not given)	> 50 µM	> 50 µM	> 50 µM	> 50 µM	> 50 µM		> 50 µM	> 50 µM	> 50 µM	46.6 µM	> 50 µM	> 50 µM		> 50 µM	> 50 µM	> 50 µM	
O=C(Nc1nc(C23CC4CC(CC(C4)C2)C3)cs1)c1cc2cc(Br)cc(Br)c2oc1=O	> 100 µM	> 100 µM	> 100 µM	> 100 µM	> 100 µM	> 100 µM	> 100 µM	> 100 µM	> 100 µM	> 100 µM	> 100 µM	> 100 µM	> 100 µM	> 100 µM	> 100 µM	> 100 µM	
O=C1/C(=C\c2cccc(Oc3ccccc3)c2)SC(c2ccccc2)N1c1ccc(Cl)cc1 (stereo not given)	> 100 µM	> 100 µM	> 100 µM	98.7 µM	> 63.6 µM	> 100 µM	> 80.9 µM	> 100 µM	> 100 µM	> 100 µM	> 100 µM	> 100 µM	> 100 µM	> 100 µM	> 41.7 µM	> 100 µM	
O=c1cc(-c2cccc(OC(F)(F)F)c2)[nH]c2cc3c(cc12)OCO3		0.75 µM	> 100 µM	> 100 µM	> 100 µM	> 100 µM	> 32.2 µM	26.6 µM	> 100 µM	> 73.6 µM	3.92 µM		1.1 µM	> 100 µM	0.336 µM	> 100 µM	
CCOC(=O)CCC(NC(=O)c1ccc(Nc2nc3cc(C(F)(F)F)ccc3nc2-c2ccccc2)cc1)C(=O)OCC (stereo not given)	> 100 µM	> 100 µM	> 100 µM	> 100 µM	> 100 µM	> 100 µM	> 100 µM	> 100 µM	> 100 µM	> 100 µM	> 100 µM	> 100 µM	> 100 µM	> 100 µM	> 100 µM	> 100 µM	
CCOC(=O)c1nc2ccc(C(F)(F)F)cc2nc1Oc1ccc(F)cc1	> 100 µM	> 100 µM	> 100 µM	> 100 µM	> 100 µM	> 100 µM	> 100 µM	> 100 µM	> 100 µM	> 100 µM		> 100 µM	> 100 µM	> 100 µM	> 100 µM	> 100 µM	
C=C[C@H]1CN2CCc3c([nH]c4c([C@H]5CCCN5C)c(O)ccc34)[C@@H]2C[C@@H]1C[C@H]1c2[nH]c3ccccc3c2CCN1C	3.25 µM	2.77 µM	3.72 µM	3.56 µM	5.32 µM	2.97 µM	2.83 µM	2.75 µM	3.33 µM	2.82 µM	3 µM	3.16 µM	3.53 µM	3.17 µM		3.36 µM	1.74 µM
CCOC(=O)c1ccc(C(=O)/C(C#N)=C2\CCCN2)[nH]1	> 100 µM	> 100 µM	> 100 µM	> 100 µM	> 100 µM	> 100 µM	> 100 µM	> 100 µM		> 100 µM	> 100 µM	> 100 µM	> 100 µM	> 100 µM	> 100 µM		
CCOC(=O)c1c(NC(=O)Nc2ccccc2)c(C(N)=O)c2n1CCCCC2	> 100 µM	> 100 µM	> 100 µM	> 100 µM	> 100 µM	> 100 µM	> 100 µM	> 100 µM	> 100 µM	> 100 µM		> 100 µM	> 100 µM	> 100 µM	> 100 µM	> 100 µM	
C[Si](C)(C)OC1c2[nH]c3ccccc3c2CN2C(=O)CCC12 (stereo not given)		> 100 µM	> 100 µM		> 100 µM	> 100 µM	> 100 µM	> 100 µM	> 100 µM	> 100 µM	> 100 µM	> 100 µM	> 100 µM	> 100 µM	> 100 µM	> 100 µM	
NC1=NC(OCC2(CO)CCC2)C=C(NCC2(CO)CCC2)N1 (stereo not given)	> 100 µM	> 100 µM	> 100 µM	> 100 µM	> 100 µM	> 100 µM	> 100 µM	> 100 µM		> 100 µM	> 100 µM	> 100 µM	> 100 µM	> 100 µM	> 100 µM		
O=[N+]([O-])C(=C(N1CCOCC1)N1CCOCC1)/C(Cl)=C(\Cl)[N+](=O)[O-]	36.4 µM	9.76 µM	4.39 µM	9.29 µM	> 100 µM	22.9 µM	7.62 µM	8.26 µM	14.6 µM		13.5 µM	34.8 µM	70.7 µM	3.04 µM	3.04 µM	3.89 µM	
CC(C)CC1c2[nH]c3ccccc3c2C[C@H]2C(=O)NC(CCC(=O)OC(C)(C)C)C(=O)N12 (stereo not given in full)	41.1 µM	> 100 µM	49.7 µM	> 100 µM	72.8 µM	> 100 µM	39.6 µM	43.1 µM	> 100 µM	78.1 µM	41.7 µM	> 100 µM		> 100 µM	61.7 µM	74 µM	
CC(=O)Nc1ccc2c(C)c3c4ccccc4n(C)c3nc2n1	53.4 µM	35.3 µM	> 100 µM	53.4 µM	32.1 µM	64.4 µM	30.9 µM	> 100 µM	33.1 µM		70.1 µM	69 µM	15.5 µM	> 100 µM	21.9 µM	94.8 µM	
CCCCCCCCCCCCCCCCP(=O)(O)OP(=O)(O)OCC1OC(n2cnc3c(N)ncnc32)C(O)C1O (stereo not given)		53.2 µM	> 100 µM	68.2 µM	76.4 µM	95.2 µM	> 100 µM	43.8 µM	62.1 µM	42 µM	88.1 µM	69.2 µM	58.4 µM	64.4 µM	> 100 µM	34.3 µM	
C=C[C@@]1(C)CC(=O)[C@]2(O)[C@@]3(C)[C@@H](OC(C)=O)CCC(C)(C)[C@@H]3[C@H](OC(C)=O)[C@H](OC(C)=O)[C@@]2(C)O1	> 100 µM	> 100 µM	> 100 µM	> 100 µM	> 100 µM			> 100 µM	> 100 µM	> 100 µM	> 100 µM	> 100 µM	> 100 µM	> 100 µM			
CC(=O)O[C@H]1C(=O)[C@@]2(C)[C@H]([C@H](OC(=O)C3CCCCC3)[C@]3(O)C[C@H](OC(=O)[C@H](O)[C@@H](NC(=O)C4CCCCC4)C4CCCCC4)C(C)=C1C3(C)C)[C@]1(OC(C)=O)CO[C@@H]1C[C@@H]2O	0.176 µM	6.97 µM	3.4 µM	0.438 µM	4.18 µM	8.14 µM	0.0266 µM		12.4 µM	4.72 µM	0.0355 µM	3.89 µM	3.87 µM	8.02 µM	1.12 µM	1.3 µM	
Cc1ccccc1N(C)S(=O)(=O)c1ccccc1[N+](=O)[O-]	> 100 µM	> 100 µM	> 100 µM	> 100 µM	> 100 µM	> 100 µM	> 100 µM	> 100 µM	> 100 µM		> 100 µM	> 100 µM	> 100 µM	> 100 µM	30.7 µM	> 100 µM	
CC1OC(O[C@H]2CC[C@]3(C)[C@H]4CC=C5[C@@H]6[C@@H](C)[C@H](C)CC[C@]6(C(=O)O)CC[C@@]5(C(=O)O)[C@]4(C)CC[C@H]3C2(C)C)C(O)C(O)C1O (stereo not given in full)	> 75 µM	> 75 µM	> 75 µM	> 75 µM	> 75 µM	> 75 µM	> 75 µM		> 75 µM	> 75 µM	> 75 µM	> 75 µM	> 75 µM	> 75 µM	> 75 µM	> 75 µM	
CCC(=O)COc1ccc(NC(NC(=O)C(C(F)(F)F)C(F)(F)F)(C(F)(F)F)C(F)(F)F)cc1	> 100 µM	61.7 µM	68.8 µM	> 100 µM	44.8 µM	78.1 µM	43.7 µM	70.3 µM	> 100 µM	> 100 µM	> 100 µM		> 100 µM	94.1 µM	> 100 µM	> 100 µM	
CNC(=O)c1n[nH][nH]c1=O	> 100 µM	> 100 µM	> 100 µM	> 100 µM	> 100 µM	> 100 µM	> 100 µM	> 100 µM	> 100 µM	> 100 µM		> 100 µM		> 100 µM	> 100 µM		
